Assay results from patent publication US9072753B1, “Gargle method to reduce the duration of common cold symptoms” (priority 2001, dated 2015).
Entries after “also recorded” stand apart in the source; their conditions may differ. Like-named read-outs stand apart in the source and are kept apart here.

Experiments:
[1] = test system: common cold; assay: Case examples, nonalcoholic mouthwash remedies in subjects with a cold; assay type: in vivo, human; details: single subject per example; 15 ml mouthwash three times a day for at least two days
Description: In order to facilitate a more complete understanding of the invention, a number of Examples are provided below. However, the scope of the invention is not limited to specific embodiments disclosed in these Examples, which are for purposes of illustration only. In each of the following Examples, the subjects were administered one tablespoon (15 ml) of remedy in a mouthwash formulation three times a day for at least two days comprising: […]

[2] = test system: Influenza A/Hong Kong/68 (H3N2); assay: Antiviral activity testing against influenza virus in MDCK cells; assay type: cell-based; details: Influenza A/Hong Kong/68 (H3N2) in MDCK cells; for Virus Inhibition: 4 values and above indicate excellent antiviral activity
Text: Results of antiviral invitro testing performed at baylor college of medicine department of molecular virology & microbiology.

[3] = test system: KB cells
[4] = test system: Madin Darby Canine Kidney (MDCK) cells; assay: Toxicity of materials in the influenza test (MDCK cells); assay type: cell-based; details: Table 2
[5] = test system: Rhinovirus 14; assay: Antiviral activity testing against rhinovirus (Rhinovirus 14 in KB cells); assay type: cell-based; details: for Virus Inhibition: 4 values and above indicate excellent antiviral activity
[6] = test system: common cold; details: after seven days; 37 zinc-treated subjects; cited from earlier work
[7] = healthy HIV-negative humans; cited from earlier work
[8] = test system: myxoviruses; details: cited from earlier work
[9] = test system: RNA-dependent DNA polymerases (reverse transcriptases) of both Moloney and Rauscher leukemia viruses; details: cited from earlier work
[10] = in vivo; cited from earlier work
[11] = test system: cells in tissue culture; details: high concentrations; cited from earlier work
[12] = test system: broad spectrum of viruses; details: cited from earlier work

## O=C([O-])O.[Na+] [Baking Soda]
[1]
  Recovery from the cold: within one day; also recorded: within two days; also recorded: within three days
[2]
  Selective Inhibition: 4
  Virus Inhibition: 2
[3]
  Toxicity: 2
[4]
  Toxicity: 0
[5]
  Selective Inhibition: 2
  Virus Inhibition: 4

## O=C1O[C@H]([C@@H](O)CO)C(O)=C1O [Ascorbic Acid]
[1]
  Recovery from the cold: within one day; also recorded: within two days
[5]
  Virus Inhibition: 4

## zinc
[6]
  Subjects asymptomatic: 86%

## O=C(O)CC(O)(CC(=O)O)C(=O)O [Citric Acid]
[1]
  Recovery from the cold: within three days; also recorded: within one day; also recorded: within four days; also recorded: within two days; also recorded: within ten days; also recorded: within five days
[2]
  Virus Inhibition: 6
[3]; human
  Toxicity: 6
[4]
  Toxicity: 6
[5]
  Virus Inhibition: 6

## CCCc1cc(=O)oc2c3c(c4c(c12)OC(C)(C)C=C4)O[C@H](C)[C@@H](C)[C@@H]3O [Calanolide A]
[7]
  Safety and tolerability: safe and well tolerated

## O=C(O)CC(O)C(=O)O (centres unmarked) [Malic Acid]
[2]
  Virus Inhibition: 6
[3]; human
  Toxicity: 6
[4]
  Toxicity: 6
[5]
  Virus Inhibition: 6

## COC(=O)C1=CO[C@@H](C)[C@@H](C=O)[C@@H]1CC(=O)[O-].COC(=O)C1=CO[C@@H](C)[C@@H](C=O)[C@@H]1CC(=O)[O-].[Ca+2] [calcium elenolate]
[8]
  Inactivation of myxoviruses: inactivates all myxoviruses so far tested
[9]
  Inhibition of reverse transcriptases: inhibits
[10]
  Tolerability in animals: well tolerated
[11]
  Toxicity to cells in tissue culture: relatively nontoxic
[12]
  Virucidal activity in vitro: virucidal for a broad spectrum of viruses in vitro

## OO [Hydrogen Peroxide]
[2]
  Virus Inhibition: 6
[3]; human
  Toxicity: 7
[4]
  Toxicity: 6
[5]
  Virus Inhibition: 7
